Data on 26 compounds can be found in ChEMBL document CHEMBL5137082, “Discovery of a Novel Vascular Disrupting Agent Inhibiting Tubulin Polymerization and HDACs with Potent Antitumor Effects” (J Med Chem, 2022).

For one data set, the system named is K562. The experiment in a line: cells. Format: functional, cell-based. The note with it: Homo sapiens, K562, 72 h.
A further data set deals with HepG2. The experiment in a line: Antiproliferative activity against human HepG2 cells assessed as inhibition of cell growth measured after 72 hrs by MTT assay. Format: functional, cell-based. The following applies: HepG2, 72 h.
The subject of data set [1] is H22. Put plainly: Antiproliferative activity against mouse H22 cells assessed as inhibition of cell growth measured after 72 hrs by MTT assay. The format is functional, cell-based. The following applies: H22, 72 h.
Another data set relates to MCF7. Put plainly: Antiproliferative activity against human MCF7 cells assessed as inhibition of cell growth measured after 72 hrs by MTT assay. The format is functional, cell-based. The note with it: MCF7, 72 h.
The nature of data set [2]: Antiproliferative activity against human HFL1 cells assessed as inhibition of cell growth measured after 72 hrs by MTT assay. The format is toxicity, cell-based.
A further data set deals with MDA-MB-231. The experiment in a line: Antiproliferative activity against human MDA-MB-231 cells assessed as inhibition of cell growth measured after 72 hrs by MTT assay. Format: functional, cell-based. The following applies: MDA-MB-231, 72 h. (In general: Formazan colour is commonly taken as a measure of viable cells.)
Another data set has as its system HCT-116. Put plainly: Antiproliferative activity against human HCT-116 cells assessed as inhibition of cell growth measured after 72 hrs by MTT assay. Format: functional, cell-based. The note with it: HCT-116, 72 h.
The next data set concerns HUVEC. Put plainly: Antivascular activity against HUVEC cells assessed as inhibition of capillary-like tubule formation at 30 nM measured after 6 hrs by inverted microscopy. The format is functional, cell-based. The following applies: Homo sapiens.
Data set [3] concerns H22. The experiment in a line: Antivascular activity against mouse H22 cells allografted in ICR mouse assessed as inhibition of blood vessel formation at 20 mg/kg, iv administered qd measured after 21 days by immunohistochemistry analysis. The format is functional, organism-based. The following applies: time 21.0 day.
For data set [4], the system named is H22. Put plainly: Antitumor activity against mouse H22 cells allografted in ICR mouse assessed as reduction in tumor weight at 20 mg/kg, iv administered qd measured after 21 days. The format is functional. Further details: scale not given: the % may be the effect or the level left. The following applies: time 21 day.
Data set [5] deals with H22. Put plainly: Antivascular activity against mouse H22 cells allografted in ICR mouse assessed as reduction in tumor microvessel density by measuring CD31-positive cells at 20 mg/kg, iv administered qd measured after 21 days by immunohistochemistry analysis. Format: functional, organism-based. The note with it: time 21.0 day.
A further data set has as its target T1, Histone deacetylase 8 (Homo sapiens, UniProt Q9BY41).
T1 sequence (Q9BY41 whole entry): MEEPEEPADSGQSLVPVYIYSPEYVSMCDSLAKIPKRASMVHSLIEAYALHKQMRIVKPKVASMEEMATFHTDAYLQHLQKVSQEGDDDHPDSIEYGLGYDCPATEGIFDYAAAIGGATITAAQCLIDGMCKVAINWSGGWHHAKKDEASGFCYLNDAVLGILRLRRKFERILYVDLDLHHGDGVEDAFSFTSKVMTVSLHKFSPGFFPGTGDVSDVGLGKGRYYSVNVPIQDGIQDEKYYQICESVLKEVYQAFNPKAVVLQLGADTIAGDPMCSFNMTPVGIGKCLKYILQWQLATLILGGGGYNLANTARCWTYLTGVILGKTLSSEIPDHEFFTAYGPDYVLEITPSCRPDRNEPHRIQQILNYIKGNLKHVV
The experiment in a line: Inhibition of HDAC8 in human HeLa cells using BOC-K(Ac)-AMC as substrate measured after 30 mins by fluorescence based microtiter plate reader assay. Format: cell-based.

In data set [6] the target is T2, Protein deacetylase HDAC6 (Homo sapiens, UniProt Q9UBN7).
T2 sequence (Q9UBN7 whole entry): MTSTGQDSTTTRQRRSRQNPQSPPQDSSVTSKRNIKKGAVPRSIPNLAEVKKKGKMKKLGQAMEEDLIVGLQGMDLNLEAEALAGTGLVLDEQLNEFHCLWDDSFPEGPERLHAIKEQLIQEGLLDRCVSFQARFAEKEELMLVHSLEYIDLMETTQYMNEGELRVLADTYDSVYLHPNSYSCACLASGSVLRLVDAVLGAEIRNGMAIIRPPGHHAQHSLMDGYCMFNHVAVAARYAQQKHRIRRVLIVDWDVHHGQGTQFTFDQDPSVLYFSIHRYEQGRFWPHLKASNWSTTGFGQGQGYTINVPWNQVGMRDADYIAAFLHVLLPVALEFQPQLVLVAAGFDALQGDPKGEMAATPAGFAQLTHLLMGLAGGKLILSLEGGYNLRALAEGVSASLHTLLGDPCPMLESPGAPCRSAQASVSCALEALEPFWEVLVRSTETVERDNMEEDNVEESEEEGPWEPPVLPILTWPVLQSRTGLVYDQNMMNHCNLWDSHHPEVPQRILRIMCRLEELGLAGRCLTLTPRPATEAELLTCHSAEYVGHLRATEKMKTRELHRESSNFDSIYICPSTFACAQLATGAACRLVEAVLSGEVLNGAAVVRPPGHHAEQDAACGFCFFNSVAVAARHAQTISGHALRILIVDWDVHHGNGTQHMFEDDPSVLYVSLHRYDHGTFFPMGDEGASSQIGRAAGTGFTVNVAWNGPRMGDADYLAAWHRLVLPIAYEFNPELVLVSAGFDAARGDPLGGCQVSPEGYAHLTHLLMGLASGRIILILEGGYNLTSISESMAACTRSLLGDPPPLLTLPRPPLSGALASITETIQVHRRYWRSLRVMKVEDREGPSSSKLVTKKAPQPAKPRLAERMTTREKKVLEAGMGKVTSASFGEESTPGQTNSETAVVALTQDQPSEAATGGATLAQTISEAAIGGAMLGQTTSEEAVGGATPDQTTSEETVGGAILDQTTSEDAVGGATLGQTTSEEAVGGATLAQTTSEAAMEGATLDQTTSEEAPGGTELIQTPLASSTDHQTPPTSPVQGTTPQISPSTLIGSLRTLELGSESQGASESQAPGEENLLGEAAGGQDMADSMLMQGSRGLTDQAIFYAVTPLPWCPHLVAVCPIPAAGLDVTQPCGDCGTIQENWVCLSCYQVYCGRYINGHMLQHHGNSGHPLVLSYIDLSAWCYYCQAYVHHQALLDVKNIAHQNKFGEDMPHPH
The experiment in a line: Inhibition of HDAC6 in human HeLa cells using BOC-K(Ac)-AMC as substrate measured after 30 mins by fluorescence based microtiter plate reader assay. Format: cell-based.

The target of a further data set is Histone deacetylase 3 (Homo sapiens, UniProt O15379). The experiment in a line: Inhibition of HDAC3 in human HeLa cells using BOC-K(Ac)-AMC as substrate measured after 30 mins by fluorescence based microtiter plate reader assay. The format is cell-based.
Sequence of Histone deacetylase 3 (O15379 whole entry): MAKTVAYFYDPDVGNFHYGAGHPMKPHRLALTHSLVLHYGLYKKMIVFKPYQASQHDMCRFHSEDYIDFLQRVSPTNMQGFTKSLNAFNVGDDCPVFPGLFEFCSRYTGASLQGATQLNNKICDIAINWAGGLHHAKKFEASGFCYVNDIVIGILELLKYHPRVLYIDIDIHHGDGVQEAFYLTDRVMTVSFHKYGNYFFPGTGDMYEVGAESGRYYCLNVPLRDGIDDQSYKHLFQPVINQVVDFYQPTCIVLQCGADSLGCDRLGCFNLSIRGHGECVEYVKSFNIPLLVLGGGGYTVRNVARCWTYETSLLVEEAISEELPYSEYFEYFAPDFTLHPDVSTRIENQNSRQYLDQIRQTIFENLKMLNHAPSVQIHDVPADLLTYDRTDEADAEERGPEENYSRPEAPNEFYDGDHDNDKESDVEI
In the next data set the target is Histone deacetylase 2 (Homo sapiens, UniProt Q92769). Put plainly: Inhibition of HDAC2 in human HeLa cells using BOC-K(Ac)-AMC as substrate measured after 30 mins by fluorescence based microtiter plate reader assay. Format: cell-based.
Sequence of Histone deacetylase 2 (Q92769 whole entry): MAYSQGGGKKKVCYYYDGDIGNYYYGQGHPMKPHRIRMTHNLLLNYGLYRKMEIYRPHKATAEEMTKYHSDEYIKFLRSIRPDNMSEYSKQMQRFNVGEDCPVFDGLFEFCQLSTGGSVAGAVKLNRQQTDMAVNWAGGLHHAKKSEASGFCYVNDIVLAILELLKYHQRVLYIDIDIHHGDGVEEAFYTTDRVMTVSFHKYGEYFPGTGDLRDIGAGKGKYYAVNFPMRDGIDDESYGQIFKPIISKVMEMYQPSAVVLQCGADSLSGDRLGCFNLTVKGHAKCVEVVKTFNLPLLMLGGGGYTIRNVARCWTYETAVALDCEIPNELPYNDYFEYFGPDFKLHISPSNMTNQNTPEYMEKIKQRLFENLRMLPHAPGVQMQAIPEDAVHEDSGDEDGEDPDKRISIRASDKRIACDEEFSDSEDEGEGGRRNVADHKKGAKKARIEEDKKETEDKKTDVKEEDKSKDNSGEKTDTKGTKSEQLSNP
A further data set addresses Histone deacetylase 1 (Homo sapiens, UniProt Q13547). Put plainly: Inhibition of HDAC1 in human HeLa cells using BOC-K(Ac)-AMC as substrate measured after 30 mins by fluorescence based microtiter plate reader assay. The format is cell-based.
For data set [7], the system named is H22. Put plainly: Antitumor activity against mouse H22 cells allografted in ICR mouse assessed as reduction in tumor weight at 25 mg/kg, ip administered qd measured after 21 days. Further details: scale not given: the % may be the effect or the level left. The format is functional. The note with it: time 21 day.

Calls of active or inactive are those of the source. No cut-off for these calls is given here.

Sequence of Histone deacetylase 1 (Q13547 whole entry): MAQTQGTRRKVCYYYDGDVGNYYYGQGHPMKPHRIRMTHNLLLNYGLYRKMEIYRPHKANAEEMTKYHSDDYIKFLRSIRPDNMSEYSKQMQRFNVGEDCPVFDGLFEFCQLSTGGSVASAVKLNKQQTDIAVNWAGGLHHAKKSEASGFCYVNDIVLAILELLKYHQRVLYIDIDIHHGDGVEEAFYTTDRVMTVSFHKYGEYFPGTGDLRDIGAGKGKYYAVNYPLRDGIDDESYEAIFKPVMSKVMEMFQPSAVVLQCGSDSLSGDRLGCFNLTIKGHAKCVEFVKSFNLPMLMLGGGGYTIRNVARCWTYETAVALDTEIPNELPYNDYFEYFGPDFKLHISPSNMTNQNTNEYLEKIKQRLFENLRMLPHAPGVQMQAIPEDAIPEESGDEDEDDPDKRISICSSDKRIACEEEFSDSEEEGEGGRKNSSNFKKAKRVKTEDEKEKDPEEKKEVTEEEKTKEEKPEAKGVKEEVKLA
Description for K562: Antiproliferative activity against human K562 cells assessed as inhibition of cell growth measured after 72 hrs by MTT assay

For the compound `COc1cc(CNC(=O)c2cc(F)ccc2N2CCOCC2)ccc1CCC(=O)NO`, in the data set on K562, the IC50 (in general, the point on the concentration scale where inhibition reaches its midpoint) is above 2000 nM.
With `COc1ccc(CNC(=O)c2cc(C#CCCC(=O)NO)ccc2N2CCOCC2)cc1O`, in the data set with K562, the IC50 is above 2000 nM.
In the data set on K562, `COc1ccc(CNC(=O)c2cc(F)ccc2N2CCOCC2)cc1C#CCCCCC(=O)NO` displayed an IC50 of 921 nM.
As for `COc1ccc(CNC(=O)c2cc(F)ccc2N2CCOCC2)cc1OCCCCCCC(=O)NO`, the half-inhibitory concentration (IC50) in the data set on K562 came out at 1500 nM.
As to `COc1ccc(CNC(=O)c2cc(C(=O)NO)ccc2N2CCOCC2)cc1O`, the IC50 in the data set with K562 was above 2000 nM.
For the compound `O=C(/C=C/c1cc(CNC(=O)c2cc(F)ccc2N2CCOCC2)ccc1O)NO`, the IC50 in the data set with HepG2 was 700 nM; in the data set with K562 it was 285 nM; with H22 [1] it was 733 nM; in the data set on MCF7, 775 nM; with MDA-MB-231, 642 nM; with HCT-116, 823 nM. In addition, the IC50 at 72 h in data set [2] was 3260 nM.
Consider `COc1cc(/C=C/C(=O)NO)ccc1CNC(=O)c1cc(F)ccc1N1CCOCC1`, for which the IC50 in the data set on K562 came to 1660 nM.
The same measure, in the same setting: next, `COc1cc(CCC(=O)NO)ccc1CNC(=O)c1cc(F)ccc1N1CCOCC1`: above 2000 nM; `COc1ccc(CNC(=O)c2cc(OCCCCCCC(=O)NO)ccc2N2CCOCC2)cc1O`: above 2000 nM.
Same read-out and setting: under `COc1ccc(CNC(=O)c2cc(C#CCCCCC(=O)NO)ccc2N2CCOCC2)cc1O` stands above 2000 nM.
As for `COc1ccc(CNC(=O)c2cc(F)ccc2N2CCOCC2)cc1O`, the half-maximal inhibitory concentration (IC50) with HepG2 was determined as 27 nM; in the data set on K562, 17 nM; with H22 [1], 29 nM; with MCF7 it was 32 nM; with MDA-MB-231, 26 nM; in the data set on HCT-116, 29 nM. Besides, the outcome in the data set with HUVEC, in the data set with H22 [3] and with H22 [5] was Active. The Activity in the data set on H22 [4] is recorded as 74%. Also, the 50% inhibitory concentration (IC50) at 72 h in data set [2] was 126 nM.
Take `COc1ccc(CNC(=O)c2cc(F)ccc2N2CCOCC2)cc1OCC(=O)NO`: the IC50 with HepG2 was 114 nM; with K562, 61 nM; with H22 [1], 95 nM; on Histone deacetylase 8, 16500 nM; in data set [6], 2420 nM; against Histone deacetylase 3, 3250 nM. Besides, the IC50 on Histone deacetylase 2 is 6720 nM; with MCF7 it was 124 nM; against Histone deacetylase 1, 8860 nM; in the data set on MDA-MB-231, 104 nM; in the data set on HCT-116 it was 105 nM. Also, the 50% inhibitory concentration (IC50) at 72 h in [2] was 495 nM.
Turning to `COc1cc(CNC(=O)c2cc(F)ccc2N2CCOCC2)ccc1/C=C/C(=O)NO`, the 50% inhibitory concentration (IC50) in the data set with K562 was 1970 nM.
Same read-out and setting: next, `COc1ccc(CNC(=O)c2cc(OCC(=O)NO)ccc2N2CCOCC2)cc1O`: above 2000 nM.
The same measure, in the same setting: under `COc1ccc(CNC(=O)c2cc(F)ccc2N2CCOCC2)cc1C#CCCC(=O)NO` stands 354 nM; under `O=C(/C=C/c1cccc(CNC(=O)c2cc(F)ccc2N2CCOCC2)c1)NO`, 664 nM.
With `COc1ccc(CNC(=O)c2cc(F)ccc2N2CCOCC2)cc1C(=O)NO`, the IC50 in the data set with K562 is 1030 nM.
Turning to `COc1ccc(CNC(=O)c2cc(C(=O)Nc3ccccc3N)ccc2N2CCOCC2)cc1O`, the IC50 with HepG2 was determined as 97 nM; with K562, 114 nM; in the data set with H22 [1], 96 nM; on Histone deacetylase 8, 2240 nM; in [6] it was 668 nM; at Histone deacetylase 3, 530 nM. For the same compound, the IC50 against Histone deacetylase 2 amounted to 28000 nM; in the data set with MCF7, 105 nM; against Histone deacetylase 1 it was 16500 nM; in the data set with MDA-MB-231, 101 nM; with HCT-116 it was 77 nM. Also, the 50% inhibitory concentration (IC50) at 72 h in data set [2] was determined as 323 nM.
`COc1ccc(CNC(=O)c2cc(F)ccc2N2CCOCC2)cc1C(=O)Nc1ccccc1N` had an IC50 in the data set on K562 above 2000 nM.
In the case of `O=C(CCCCCCC(=O)Nc1ccccc1)NO` [VORINOSTAT], the Activity with H22 [7] came to 61%.
Regarding `COc1ccc(CNC(=O)c2cc(F)ccc2N2CCOCC2)cc1OCCCC(=O)NO`, in the data set with K562, half-maximal inhibition (IC50) was put at 1040 nM.
On to `COc1ccc(CNC(=O)c2cc(OCCCC(=O)NO)ccc2N2CCOCC2)cc1O`, for which the IC50 in the data set with K562 is above 2000 nM.
Same read-out and setting: under `COc1ccc(CNC(=O)c2cc(/C=C/C(=O)NO)ccc2N2CCOCC2)cc1O` stands above 2000 nM; under `COc1ccc(CNC(=O)c2cc(F)ccc2N2CCOCC2)c(CCC(=O)NO)c1`, 1060 nM.
Same read-out and setting: under `COc1ccc(CNC(=O)c2cc(F)ccc2N2CCOCC2)c(/C=C/C(=O)NO)c1` stands 2000 nM; under `COc1ccc(CNC(=O)c2cc(F)ccc2N2CCOCC2)cc1CCC(=O)NO`, above 2000 nM.
